Values of other authors as cited in paper PMC4505863 (ACS Chemical Neuroscience, 2014).

Assays:
5-HT2A = conditions: cited from earlier work
Male C57BL/6J mice = conditions: cited from earlier work
mice = conditions: cited from earlier work; for doses producing the head twitch in mice: 34−36

COc1cc(CCNCc2ccccc2O)c(OC)cc1C#N [Compound 25CN-NBOH, N-(2-hydroxybenzyl)-2,5-dimethoxy-4-cyanophenethylamine]
selectivity for 5-HT2A over 5-HT2C (5-HT2A): 100 fold

CCN(CC)C(=O)[C@@H]1C=C2c3cccc4[nH]cc(c34)C[C@H]2N(C)C1 [LSD, reference compound]
ED50, HTR, automated system (Male C57BL/6J mice): 0.13 µmol/kg
ED50, head twitch, direct observation (mice): 0.14 µmol/kg

COc1ccc2[nH]cc(CCN(C(C)C)C(C)C)c2c1 [5-MeO–DIPT, 5-MeO-N,N-diisopropyltryptamine]
doses producing the head twitch in mice (mice): ≤ 1 mg/kg

COc1cc(CC(C)N)c(OC)cc1I (stereo not drawn) [DOI, 2,5-dimethoxy-4-iodoamphetamine]
doses producing the head twitch in mice (mice): ≤ 1 mg/kg

CC(N)Cc1c[nH]c2ccccc12 (stereo not drawn) [α-methyltryptamine]
active dose range, head twitch (mice; ref 36−38): 3 to 30 mg/kg
